Data: patent US4230879A, “15-Deoxy-16-hydroxy-16-formyo or dimethoxy-methyl-prostane derivatives of the E and F series” (American Cyanamid Company, priority 1979, dated 1980)

Tested on: Histamine
Test: KONZETT (Histamine)
Format: in vivo
Details: spasmogen histamine

CCCCC(O)(C=O)C/C=C/[C@H]1[C@H](O)CC(=O)[C@@H]1CCCCCCC(=O)O (relative stereo) [dl-11α,16α/β-dihydroxy-9-oxo-16-formyl-13-trans-prostenoic acid]
ED50: 8.89 µg/kg
